{
  "source": "patent US10682382B2",
  "about": "“Composition for relieving pain, stress and insomnia” (priority 2014, dated 2020)",
  "key": {"[1]": {"system": "carrageenan induced paw oedema", "test": "Carrageenan induced paw oedema in rats (topical application, plethysmographic paw volume)", "conditions": "mean ± SD, n = 6; for Paw volume, carrageenan induced paw oedema: topical application 7 days + day 8; for Percentage change in carrageenan induced paw oedema (paw volume): ((Vt−Vo)/Vo)×100"}, "[2]": {"system": "REM sleep deprivation induced hyperalgesia", "test": "REM sleep deprivation induced hyperalgesia (modified flowerpot technique, hot plate method)", "assay_type": "in vivo, Male albino Wistar rats", "description": "The modified flowerpot technique was used to induce REM sleep deprivation. In this method, rats are placed on elevated platforms in a water tank for 96 hrs. During REM sleep muscle atonia occurs as a result of which when an animal enters REM sleep it falls from the platform into the water. Therefore the animal wakes up and climbs onto platform again. This method prevents REM sleep and permits other sleep stages.\nThe paws of rats are very sensitive to heat at temperatures which are not damaging to the skin. The responses shown by rats placed on a hot plate are jumping, withdrawal of the paws and licking of the paws. This test is thus used to assess the pain threshold and the animal's response to mild painful stimuli.\nTo induce sleep deprivation, an acrylic box (24 cm×18 cm×18 cm) with platforms of height 9 cm and 6 cm diameter was used. Water was filled, in the box upto a level of 1 cm below the platform. 6 animals were placed on each platform for 96 hrs. One platform was kept vacant to reduce immobilization stress. […] The responses of the animals to painful stimuli were observed (licking of paws, jumping, paw withdrawal) and the duration of time the animal could remain on the hot plate was recorded. […] One hour after application of the test substances, the animals were again subjected to the hot plate and the response was evaluated. […]"}},
  "data": [
    {"smiles": "O=C(O)Cc1ccccc1Nc1c(Cl)cccc1Cl", "note": "[Diclofenac]", "values": [
      {"measurement": "Paw volume, carrageenan induced paw oedema", "setting": "[1]; 0 hr (immediately before carrageenan)", "value": "0.23 ± 0.05"},
      {"measurement": "Paw volume, carrageenan induced paw oedema", "setting": "[1]; 2 hr after carrageenan", "value": "0.67 ± 0.06"},
      {"measurement": "Percentage change in carrageenan induced paw oedema (paw volume)", "setting": "[1]; 2 hr vs 0 hr", "value": "202.5 ± 79.48", "unit": "%"},
      {"measurement": "Paw volume, carrageenan induced paw oedema", "setting": "[1]; 5 hr after carrageenan", "value": "0.38 ± 0.05"},
      {"measurement": "Percentage change in carrageenan induced paw oedema (paw volume)", "setting": "[1]; 5 hr vs 0 hr", "value": "75 ± 82.15", "unit": "%"},
      {"measurement": "Paw volume, carrageenan induced paw oedema", "setting": "[1]; 24 hr after carrageenan", "value": "0.20 ± 0.05"},
      {"measurement": "Percentage change in carrageenan induced paw oedema (paw volume)", "setting": "[1]; 24 hr vs 0 hr", "value": "−16.66 ± 25.81", "unit": "%"},
      {"measurement": "Increase in paw withdrawal time", "setting": "[2]; after minus before formulation, hot plate", "value": 6.00},
      {"measurement": "Paw withdrawal time, before formulation", "setting": "[2]; hot plate 50±2° C. after 96 hrs REM sleep deprivation, before application of test substance, cut-off 60 seconds, mean ± SD, n = 6", "value": "6.67 ± 3.33", "unit": "s"}
    ]}
  ]
}
